“Also recorded” adds a separate entry of the source. Structures can show the parent of a compound that is named as a salt.
Tests used:
[1] = test system: human abdominal skin; experiment: In vitro human skin permeation and skin disposition, flow-through diffusion cells (Example 1); type: in vitro ADME; details: for found in the skin disposition (tissue) samples: Example 1; for 36 h skin conc.: Table 14, in propylene glycol; for permeation through the skin: both the PG donor solution and gel formulation
Experimental: Flow through diffusion cells were used for the permeation studies. HEPES-buffered Hanks' balanced salts containing 40% (polyethylene glycol) PEG 400 with gentamicin was used for the receiver compartment. Donor solution was comprised of either 100% propylene glycol (PG) solution or a rubbed in gel formulation. […] Drug accumulation in the skin after a 24 or 36 h diffusion experiment was determined as μmol/g wet tissue weight.
(§1) The skin samples used in the following experiments were obtained from abdominal reduction surgery and dermatomed to a thickness of approximately 200 μm. The skin samples used herein were frozen at −20° C. for less than six months.
1 L of receiver fluid was prepared by measuring 1 L of nanopure water into a graduated cylinder. 90% of the water was added to an Erlenmeyer flask. Hanks' salts (1 bottle) were added to the water along with 5.96 g of HEPES and 0.35 g of sodium bicarbonate. The pH of the solution was adjusted with 1 N sodium hydroxide solution to pH 7.4. The remaining water was added and the receiver fluid was filtered through a 0.2μ filter (Millipore, Billerica, Mass.). 50 mg of gentamicin was added to the filtered receiver fluid and 400 mL of the receiver fluid was removed and replaced with 400 mL of PEG 400.
Two different formulations were used for charging the donor compartment. Drugs were made up in either 100% PG or a gel formulation. For the PG solution, approximately 50-120 mg of the appropriate drug was weighed into a glass silanized culture tube. The gel formulation resulted from the mixing of absolute ethanol, nanopure water, IPM, Carbopol® 980, 0.1 N aqueous sodium hydroxide solution and the respective drug.
Dermatomed skin harvested from abdominoplasty, stored at −20° C., was used for the experiments. A PermeGear flow-through (In-Line, Riegelsville, Pa.) diffusion cell system was used for the skin permeation studies.
(§2) Diffusion cells were kept at 32° C. with a circulating water bath. Human epidermal skin was arranged in the diffusion cell with stratum corneum (upper layer of skin) facing the donor compartment. Permeation area of the skin was 0.95 cm^2. Data was collected from a human skin donor with three to four diffusion cells per treatment.
Receiver solution was HEPES-buffered Hanks' balanced salts with gentamicin containing 40% PEG 400 at a pH of 7.4 and flow rate was adjusted to 0.8 mL/h. Each cell was charged with 0.050 mL of the respective drug formulation (donor solution) or with 0.035 mL of gel formulation which was rubbed into the skin for 15 sec with a Teflon coated rod. The formulation was applied to ensure complete coverage. Diffusion cells were covered with a cap for the duration of the study.
(§3) Samples were collected into scintillation vials in 3 h increments for either 24 h or 36 h. All the samples were stored at 4° C. until extracted. An aliquot (0.5 mL) of the diffusion sample was placed into a silanized HPLC vial and 0.5 mL of acetonitrile was added to the sample, capped and vortexed.
At the end of the experiment, the skin tissue was removed from the diffusion cell, rinsed with nanopure water, and blotted dry with a paper towel. The skin was tape stripped twice using book tape (Scotch™, 3M, St. Paul, Minn.) to remove drug formulation adhering to the tissue surface. The area of skin in contact with the drug was cut out, chopped up and placed in a pre-weighed scintillation vial. Ten mL of acetonitrile was added to the vial and drug was extracted from the skin by shaking at room temperature overnight. The following day a 0.1 mL aliquot was removed and diluted with an additional 0.9 mL of acetonitrile. The diluted sample was added to the silanized HPLC vial for analysis.
At the end of the experiment, a 0.01 mL aliquot of the PG donor solution was removed and added to a scintillation vial containing 10 mL of acetonitrile. The vials were vortexed and then sonicated for 15 min. An aliquot of 1 mL was removed and transferred into a silanized HPLC vial for analysis.

[2] = test system: human abdominal skin; experiment: In vitro human skin permeation and skin disposition, flow-through diffusion cells (Examples 2, 2A, 2B); type: in vitro ADME; details: for 24 h skin conc / 24 h cumulative amt / Flux / Lag time / Flux enhancement: 40% aqueous PEG 400 receiver fluid; for Flux enhancement: total cannabidiol versus cannabidiol
Experimental: Flow through diffusion cells were used for the permeation studies. HEPES-buffered Hanks' balanced salts containing 40% PEG 400 with gentamicin or 40% aqueous PEG 400 with gentamicin were used for the receiver compartment. Donor solution was comprised of 90:8:2 PG:H2O:IPM solution or gel formulation. […] Drug accumulation in the skin after a 24, 30 or 42 h diffusion experiment was determined as μmol/g wet tissue weight.
as §1
One (1) L of receiver fluid was prepared by measuring 1 L of nanopure water into a graduated cylinder. 90% of the water was added to an Erlenmeyer flask. Hanks' salts (1 bottle) were added to the water along with 5.96 g of HEPES and 0.35 g of sodium bicarbonate. The pH of the solution was adjusted with 1 N sodium hydroxide solution to pH 7.4. The remaining water was added and the receiver fluid was filtered through a 0.2μ filter (Millipore, Billerica, Mass.). Fifty (50) mg of gentamicin was added to the filtered receiver fluid and 400 mL of the receiver fluid was removed and replaced with 400 mL of PEG 400.
The receiver fluid was prepared by measuring 600 mL of nanopure H2O into a graduated cylinder. The H2O was filtered through a 0.2μ filter (Millipore, Billerica, Mass.). Fifty (50) mg of gentamicin was added to the filtered H2O and 400 mL of PEG 400 was added.
The prodrugs were made up in a solution of 45:4:1 PG:H2O:IPM. For this solution, the appropriate amount of drug was weighed into a glass silanized culture tube and IPM was added, the 50 μL of PG to coat the drug, then an additional 247 μL PG was added and the donor solution was vortexed again. Finally 26 μL of water was added. The gel formulation resulted from the mixing of absolute ethanol, nanopure water, IPM, Carbopol® 980, 0.1 N sodium hydroxide solution and the respective drug.
The gel formulation was comprised of absolute ethanol, nanopure water, IPM, Carbopol® 980, 0.1 sodium hydroxide solution and respective drug. The anhydrous gel was comprised of absolute ethanol, PEG monoethyl ether 550, Klucel® hydroxypropylcellulose, and respective drug.
Dermatomed skin harvested from abdominoplasty, stored at −20° C., was used for the experiments. A PermeGear flow-through (In-Line, Hellertown, Pa.) diffusion cell system was used for the skin permeation studies.
as §2, with “The permeation” for “Permeation”, “The data” for “Data”, “three” for “three to four”
The receiver solution was HEPES-buffered Hanks' balanced salts with gentamicin containing 40% PEG 400 at a pH of 7.4 or 40% aqueous PEG 400 and flow rate was adjusted to 0.8 mL/h. Each cell was charged with 0.10 mL of the respective drug formulation (donor solution) or 50 μL of gel formulation which was rubbed into the skin for 15 sec with a Teflon coated rod. The formulation was applied to ensure complete coverage. […]. Diffusion cells were covered with a stopper or cap for the duration of the study.
as §3, with “24, 30,” for “24 h”, “42” for “36”
At the end of the experiment, the skin tissue was removed from the diffusion cell, rinsed with nanopure water, and blotted dry with a paper towel. The skin was tape stripped twice using book tape (Scotch™, 3M, St. Paul, Minn.) to remove drug formulation adhering to the tissue surface.

[3] = Table 19, gel formulation, CBD from applied prodrug
[4] = Table 19, gel formulation, as applied compound (CBD or intact prodrug)
[5] = Table 19, gel formulation, prodrug applied, as total cannabidiol equivalents
[6] = Table 21, gel formulation, CBD from applied prodrug
[7] = Table 21, gel formulation, as applied compound (CBD or intact prodrug)
[8] = Table 21, gel formulation, prodrug applied, as total cannabidiol equivalents
[9] = in an anhydrous gel formulation
[10] = Table 23, gel formulation, CBD from applied prodrug

SMILES	found in the skin disposition (tissue) samples [1]	permeation through the skin [1]	24 h skin conc [2, 3]	24 h cumulative amt [2, 4]	24 h skin conc [2, 4]	Flux [2, 4]	Lag time [2, 4]	24 h cumulative amt [2, 5]	24 h skin conc [2, 5]	Flux [2, 5]	Lag time [2, 5]	Flux enhancement ([2]; Table 19, gel formulation)	detected in the skin as ([2]; in gel formulation)	flux compared to cannabidiol ([2]; in gel formulation)	permeated through the skin as ([2]; in gel formulation)	total skin concentrations compared to cannabidiol ([2]; in gel formulation)	24 h skin conc [2, 6]	24 h skin conc [2, 7]	24 h skin conc [2, 8]	other results
C=C(C)C1CCC(C)=CC1c1c(OC(=O)CCOCC)cc(CCCCC)cc1OC(=O)CCOCC (centres unmarked) [ALL00103]	Some intact prodrug was found in the skin samples but very little cannabidiol was detected	did not permeate (or were below LOD)	–	–	–	–	–	–	–	–	–	–	–	–	–	–	–	–	–	36 h skin conc. ([1]; as applied compound (CBD or intact prodrug)): 9.7 ± 1.0 µmol/g; 36 h skin conc. ([1]; prodrug applied, as total CBD equivalents): 9.7 ± 1.0 µmol/g
C=C(C)C1CCC(C)=CC1c1c(O)cc(CCCCC)cc1OC(=O)CN(C)C (centres unmarked) [ALL00148, CBD N,N-dimethylglycinate]	–	–	2.4 ± 2.1 µmol/g	8.0 ± 1.8 nmol	20.8 ± 21.1 µmol/g	0.5 ± 0.1 nmol/cm^2/h	7.6 ± 2.1 h	8.0 ± 1.8 nmol	23.2 ± 23.2 µmol/g	0.5 ± 0.1 nmol/cm^2/h	7.6 ± 2.1 h	0.63	mostly intact prodrug and small amounts of cannabidiol	did not increase the flux	intact prodrug only	higher	–	–	–	lag time compared to cannabidiol ([2]; in gel formulation): similar
C=C(C)C1CCC(C)=CC1c1c(O)cc(CCCCC)cc1OC(=O)CCN(C)C (centres unmarked) [ALL00150, CBD 3-(dimethylamino)propionate]	–	–	–	–	–	–	–	–	–	–	–	–	primarily ALL00150 with a small amount of cannabidiol	–	did not permeate through the skin	higher	7.9 ± 2.3 µmol/g	47.7 ± 3.0 µmol/g	55.6 ± 5.3 µmol/g	24 h skin conc ([2]; Table 22, anhydrous gel formulation, CBD from applied prodrug): 1.1 ± 0.8 µmol/g; 24 h skin conc ([2]; Table 22, anhydrous gel formulation, as applied compound (CBD or intact prodrug)): 5.6 ± 3.1 µmol/g; 24 h skin conc ([2]; Table 22, anhydrous gel formulation, prodrug applied, as total cannabidiol equivalents): 6.7 ± 3.8 µmol/g; concentrations in the skin, anhydrous gel formulation compared to the ethanol based gel formulation ([2]; anhydrous gel versus ethanol based gel): much lower; detected in the skin as [2, 9]: ALL00150 and cannabidiol; permeation through the skin [2, 9]: did not permeate through the skin; total skin concentrations compared to cannabidiol [2, 9]: higher
C=C(C)C1CCC(C)=CC1c1c(OC(=O)NCC)cc(CCCCC)cc1OC(=O)NCC (centres unmarked) [ALL00104]	Some intact prodrug was found in the skin samples but very little cannabidiol was detected	did not permeate (or were below LOD)	–	–	–	–	–	–	–	–	–	–	–	–	–	–	–	–	–	–
C=C(C)[C@@H]1CCC(C)=C[C@H]1c1c(O)cc(CCCCC)cc1OC=O [ALL00146, CBD Formate]	–	–	0.8 ± 0.1 µmol/g	4.0 ± 0.0 nmol	3.3 ± 0.5 µmol/g	0.3 ± 0.0 nmol/cm^2/h	7.0 ± 0.0 h	12.7 ± 2.3 nmol	4.1 ± 0.4 µmol/g	0.9 ± 0.1 nmol/cm^2/h	8.9 ± 1.1 h	1.09	intact prodrug and cannabidiol; also recorded: small amount of cannabidiol with the remaining being prodrug	did slightly increase the flux; also recorded: didn't increase the flux	–	–	3.7 ± 2.1 µmol/g	16.0 ± 9.8 µmol/g	19.7 ± 11.9 µmol/g	24 h cumulative amt [2, 3]: 10.7 ± 0.5 nmol; Flux [2, 3]: 0.8 ± 0.1 nmol/cm^2/h; Lag time [2, 3]: 9.1 ± 0.9 h; 24 h cumulative amt [2, 6]: 2.7 ± 1.4 nmol; Flux [2, 6]: 0.2 ± 0.1 nmol/cm^2/h; Lag time [2, 6]: 9.8 ± 3.7 h; 24 h cumulative amt [2, 8]: 2.7 ± 1.4 nmol; Flux [2, 8]: 0.2 ± 0.1 nmol/cm^2/h; Lag time [2, 8]: 9.8 ± 3.7 h; Flux enhancement ([2]; Table 21, gel formulation): 0.53; 24 h cumulative amt [2, 10]: 5.9 nmol; Flux [2, 10]: 0.26 nmol/cm^2/h; Lag time [2, 10]: 0.4 h
